Experimental data published in patent US20170008888A1 (KYORIN PHARMACEUTICAL CO., LTD., priority 2014, published 2017).

Legend:
[1] = target: T1, recombinant human ERK5 catalytic domain (Homo sapiens, UniProt Q13164); test: Recombinant human ERK5 radiometric (HotSpot) assay; type: biochemical; conditions: 10 μM ATP, 20 μM myelin basic protein substrate; read-out: rhERK5 IC50
T1 construct: Recombinant human ERK5 catalytic domain radiometric assays; purchased Reaction Biology, Corp (Malvern, Pa.), which ran the assay as a service
T1 sequence (Q13164 55-347 limits assumed): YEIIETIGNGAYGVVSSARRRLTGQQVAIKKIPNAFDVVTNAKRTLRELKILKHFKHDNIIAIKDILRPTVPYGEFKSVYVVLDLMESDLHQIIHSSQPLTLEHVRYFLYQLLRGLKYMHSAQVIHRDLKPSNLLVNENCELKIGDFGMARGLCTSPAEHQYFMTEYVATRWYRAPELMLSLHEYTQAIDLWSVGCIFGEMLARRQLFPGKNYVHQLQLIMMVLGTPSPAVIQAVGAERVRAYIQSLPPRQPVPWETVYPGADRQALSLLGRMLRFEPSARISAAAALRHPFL
Method: In this example, potency of the compounds in recombinant human ERK5 was assayed.
Recombinant human ERK5 catalytic domain radiometric assays were performed by Reaction Biology, Corp (Malvern, Pa.). The HotSpot radiometric assay is based on conventional filter-binding assays (Nature Biotechnology (2011) 29: 1039-1045). Compounds were tested at 20 μM down by ⅓ in a 10 point serial dilution series. Briefly, [γ-33P]-ATP was used as the tracer along with 10 μM cold ATP to label ERK5 in the presence of 20 μM myelin basic protein substrate.

[2] = system: human PBMCs; test: Human PBMC TNF-α response to endotoxin (ELISA); type: cell-based; conditions: 0.1 μg/ml LPS 16 h, read-out: EC50 for the inhibition of the human PBMC TNF-α response to endotoxin, ave. ± S.D.
Procedure, shortened: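 PBMCs at 2e6 cells/ml in RPMI 1640 with 10% charcoal-dextran-treated FBS were pre-treated 1 h at 37 °C with compound (4-point 1:5 dilution from 10 μM). Stimulation with 0.1 μg/ml E. coli 0111:B4 LPS for 16 h; TNF-α measured by ELISA (A450) in 25-fold diluted supernatant.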

[3] = target: T2, BRD4 bromodomain domain I [BRD4(1)] (Homo sapiens, UniProt O60885); test: BRD4 bromodomain domain 1 inhibition assay (TR-FRET); type: binding
T2 construct: BRD4 bromodomain domain I [BRD4(1)]; purchased Cayman Chemicals
Procedure, shortened: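 0.5% DMSO, in triplicate, using Cayman BRD4(1) TR-FRET protocol with slight modification. 670/620 nm ratio normalized to 10 μM JQ1, with DMSO control set as 0% inhibition.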

`CCOc1cc(C(=O)N2CCC(N3CCCNCC3)CC2)ccc1Nc1cc2c(cn1)N(C)C(=O)c1ccccc1N2C` [Compound T45] gave an IC50 [1] of under 20 nM and an EC50 [2] of 1480 nM.
`CCOc1cc(C(=O)N2CCNC(C)CC2)ccc1Nc1cc2c(cn1)N(C)C(=O)c1ccccc1N2C` (stereo not shown) [Compound T46] showed an IC50 [1] of under 20 nM and an EC50 [2] of 600 nM.
`CCOc1cc(C(=O)N2CCC(N3CCN[C@H](C)C3)CC2)ccc1Nc1cc2c(cn1)N(C)C(=O)c1ccccc1N2C` [Compound T51] was tested, and the IC50 [1] was 20 to 50 nM and the EC50 [2] was 740 nM.
With `CCOc1cc(C(=O)N2CCC(N3CCN[C@@H](C)C3)CC2)ccc1Nc1cc2c(cn1)N(C)C(=O)c1ccccc1N2C` [Compound T52] the IC50 [1] was 20 to 50 nM and the EC50 [2] was 1080 nM.
For `CCOc1cc(C(=O)N2CCC[C@H](N3CCCC3)C2)ccc1Nc1cc2c(cn1)N(C)C(=O)c1ccccc1N2C` [Compound T53], the IC50 [1] was 50 to 200 nM and the EC50 [2] was 890 nM.
`CCOc1cc(C(=O)N2CC[C@@H](N(C)CCO)C2)ccc1Nc1cc2c(cn1)N(C)C(=O)c1ccccc1N2C` [Compound T55] was tested, and the IC50 [1] was 20 to 50 nM and the EC50 [2] was 840 nM.
For `CCOc1cc(C(=O)N2CCC[C@@H](N3CCCC3)C2)ccc1Nc1cc2c(cn1)N(C)C(=O)c1ccccc1N2C` [Compound T57], the IC50 [1] was 50 to 200 nM and the EC50 [2] was 650 nM.
Work on `CCOc1cc(C(=O)N2CC[C@@H](N3CCNCC3)C2)ccc1Nc1cc2c(cn1)N(C)C(=O)c1ccccc1N2C` [Compound T58] yielded an IC50 [1] of 20 to 50 nM and an EC50 [2] of 1040 nM.
For `CCOc1cc(C(=O)N[C@H]2CC[C@H](O)CC2)ccc1Nc1cc2c(cn1)N(C)C(=O)c1ccccc1O2` [Compound T89], the IC50 [1] was 50 to 200 nM, the EC50 [2] was 1720 ± 1510 nM and the IC50 [3] was over 5 µM.
`CN1C(=O)c2cccc(F)c2Oc2cc(N[C@H]3CC[C@H](O)CC3)ncc21` [Compound T93] was tested, and the IC50 [1] was over 200 nM, the EC50 [2] was 1720 ± 1340 nM and the IC50 [3] was over 5 µM.
For `CN1C(=O)c2cccc(Cl)c2Oc2cc(N[C@H]3CC[C@H](O)CC3)ncc21` [Compound T94], the IC50 [1] was over 200 nM, the EC50 [2] was 1170 ± 1120 nM and the IC50 [3] was over 5 µM.
`Cc1cccc2c1Oc1cc(N[C@H]3CC[C@H](O)CC3)ncc1N(C)C2=O` [Compound T96] was tested, and the IC50 [1] was over 200 nM, the EC50 [2] was 1100 ± 860 nM and the IC50 [3] was 2 to 5 µM.
`CCOc1cc(C(=O)N2CCN(C3CCN(C)CC3)CC2)ccc1Nc1cc2c(cn1)N(C)C(=O)c1ccccc1S2` [Compound T99] gave an IC50 [1] of 50 to 200 nM, an EC50 [2] of 3220 ± 2750 nM and an IC50 [3] of over 5 µM.
For `CCOc1cc(C(=O)N2CCN(C3CCN(C)CC3)CC2)ccc1Nc1cc2c(cn1)N(C)C(=O)c1cccc(F)c1O2` [Compound T103], the IC50 [1] was 50 to 200 nM, the EC50 [2] was 1230 ± 1310 nM and the IC50 [3] was over 5 µM.
Molecule `CCOc1cc(C(=O)N2CCN(C3CCN(C)CC3)CC2)ccc1Nc1cc2c(cn1)N(C)C(=O)c1cccc(Cl)c1O2` [Compound T104] has an IC50 [1] of 50 to 200 nM, an EC50 [2] of 510 ± 240 nM and an IC50 [3] of 2 to 5 µM.
`CCOc1cc(C(=O)N2CCN(C3CCN(C)CC3)CC2)ccc1Nc1cc2c(cn1)N(C)C(=O)c1cccc(OC)c1O2` [Compound T105] was tested, and the IC50 [1] was 50 to 200 nM, the EC50 [2] was 430 ± 280 nM and the IC50 [3] was under 2 µM.
Work on `CCOc1cc(C(=O)N2CCN(C3CCN(C)CC3)CC2)ccc1Nc1cc2c(cn1)N(C)C(=O)c1cccc(C)c1O2` [Compound T106] yielded an IC50 [1] of 50 to 200 nM, an EC50 [2] of 270 ± 170 nM and an IC50 [3] of under 2 µM.
For `CCOc1cc(C(=O)N2CCN(C3CCN(C)CC3)CC2)ccc1Nc1cc2c(cn1)N(C)C(=O)c1c(F)ccc(F)c1O2` [Compound T107], the IC50 [1] was 20 to 50 nM, the EC50 [2] was 300 ± 250 nM and the IC50 [3] was under 2 µM.
`CCO[C@H]1CC[C@H](Nc2cc3c(cn2)N(C)C(=O)c2ccccc2N3C)CC1` [Compound T110] gave an IC50 [1] of 50 to 200 nM, an EC50 [2] of 2740 ± 1870 nM and an IC50 [3] of over 5 µM.
Molecule `CCOC1CCCC[C@H]1Nc1cc2c(cn1)N(C)C(=O)c1ccccc1N2C` (stereo partly shown) [Compound T113] has an IC50 [1] of over 200 nM, an EC50 [2] of 2950 ± 2170 nM and an IC50 [3] of over 5 µM.
For `CN1C(=O)c2ccccc2N(C)c2cc(N[C@H]3CC[C@@H](O)CC3)ncc21` [Compound T114], the IC50 [1] was over 200 nM, the EC50 [2] was 3070 ± 3350 nM and the IC50 [3] was over 5 µM.
`CN1C(=O)c2ccccc2Sc2cc(N[C@H]3CC[C@H](O)CC3)ncc21` [Compound T116] showed an IC50 [1] of over 200 nM, an EC50 [2] of 1660 ± 1530 nM and an IC50 [3] of over 5 µM.
`CN1C(=O)c2ccccc2Oc2cc(N[C@H]3CC[C@H](O)CC3)ncc21` [Compound T117] showed an IC50 [1] of over 200 nM, an EC50 [2] of 2700 ± 2720 nM and an IC50 [3] of over 5 µM.
For `CN1C(=O)c2cccc(F)c2N(C)c2cc(N[C@H]3CC[C@H](O)CC3)ncc21` [Compound T118], the IC50 [1] was over 200 nM, the EC50 [2] was 2430 ± 1780 nM and the IC50 [3] was over 5 µM.
Work on `CN1C(=O)c2c(F)cccc2N(C)c2cc(N[C@H]3CC[C@H](O)CC3)ncc21` [Compound T119] yielded an IC50 [1] of 50 to 200 nM, an EC50 [2] of 980 ± 930 nM and an IC50 [3] of under 2 µM.
